In patent US11111240B2, “Sultam compound and application method thereof” (Chia Tai Tianqing Pharmaceutical Group Co., Ltd., priority 2016, dated 2021):

Target: IDH1 (R132H) (Homo sapiens (Human), UniProt O75874, R132H)
Test: Enzyme assay, IDH1m inhibition (NADPH decrease, diaphorase/resazurin)
Assay type: biochemical
Details: 40 nM enzyme, 16 h pre-incubation at 23° C.
Description: Resazurin is a traditional redox dye, and after a redox reaction, it can be reduced from a blue resazurin without fluorescence to a pink fluorescent substance, resorufin, which can be measured and quantified with relative fluorescence unit (RFU) of fluorophotometer (Ex=530-570 nm, Em=590-620 nm). At present, resazurin is widely used for determining the viability of bacteria, cells, etc. and the enzyme activity detection of oxidoreductase. We detected the decrease of cofactor NADPH to determine the inhibitory activity of a compound against IDH1m and detected the generation of cofactor NADPH to determine the inhibitory activity of a compound against IDH WT. The compound was pre-incubated with IDH1m and NADPH, and then the reaction was initiated by adding α-KG and performed for certain time under a linear condition. Then, diaphorase (lipoamide dehydrogenase) and the corresponding substrate resazurin were added thereto for detection. Lipoamide dehydrogenase terminated the IDH1m reaction by decreasing the available cofactor NADPH, which oxidized NADPH to NADP, and reduced resazurin to high fluorescent resorufin. The amount of the remaining cofactor NADPH after a specific reaction time was quantified via an easily detectable fluorophore.
The specific operation was as follows: 2.5 μl of the compound diluted in a 3-fold gradient was added to a 384-well plate, followed by adding 5 μl of the reaction buffer (20 mM Tris-HCl, pH 7.5; 150 mM NaCl; 10 mM MgCl2; 0.4 mg/mL BSA (Bovine Serum Albumin) and 2 mM DTT (dithiothreitol)) containing 40 nM IDH1 (R132H/R132C) and 20 μM NADPH. Then, the above test mixture was incubated at 23° C. for 16 hours, and then 2.5 μl of the reaction buffer containing 4 mM α-KG was added to initiate the reaction. After they were incubated for 60 minutes at room temperature, 5 μl of the termination mixture (0.4 U/ml diaphorase and 20 μM resazurin) formulated with the reaction buffer was added to convert resazurin to resorufin, so as to measure the amount of the remaining NADPH. After incubating at 23° C. for 10 minutes, fluorescence values were determined through Flexstation 3 at Ex535/Em595. The enzyme activity of each compound was respectively determined at 12 concentrations, and the data were calculated using the software GraFit6.0 (Erithacus Software) to obtain the IC50 value of each compound.

Sequence of IDH1 (R132H) (O75874 whole entry R132H): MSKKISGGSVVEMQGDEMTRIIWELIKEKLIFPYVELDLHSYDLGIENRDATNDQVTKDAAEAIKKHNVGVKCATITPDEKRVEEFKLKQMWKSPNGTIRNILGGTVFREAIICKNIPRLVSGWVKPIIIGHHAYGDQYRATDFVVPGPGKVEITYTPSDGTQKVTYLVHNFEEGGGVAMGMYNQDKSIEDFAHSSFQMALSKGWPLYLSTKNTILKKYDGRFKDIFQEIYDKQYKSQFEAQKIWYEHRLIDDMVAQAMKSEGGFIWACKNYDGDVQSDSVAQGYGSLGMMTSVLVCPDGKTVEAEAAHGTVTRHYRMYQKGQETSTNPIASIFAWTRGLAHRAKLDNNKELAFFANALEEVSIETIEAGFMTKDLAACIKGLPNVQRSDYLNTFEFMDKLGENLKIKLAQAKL

| Compound | IC50 |
| --- | --- |
| N#Cc1ccnc(NS(=O)(=O)c2cccc(N(C(=O)[C@@H]3CCS(=O)(=O)N3c3cc(C#N)ccn3)C(C(=O)NC3CCCCC3)c3ccccc3Cl)c2)c1 (stereo partly drawn) [Example 20, (3S)—N-(1-(2-chlorophenyl)-2-(cyclohexylamino)-2-oxoethyl)-2-(4-cyanopyridin-2-yl)-N-(3-(N-(4-cyanopyridin-2-yl)aminosulfonyl)phenyl)-isothiazolidine-3-carboxamide 1,1-dioxide] | < 0.02 µM |
| N#Cc1ccnc(N2[C@H](C(=O)N(c3cccc(F)c3)[C@H](C(=O)NC3CC(F)(F)C3)c3ccccc3Cl)CNS2(=O)=O)c1 [Example 24, (S)—N—((S)-1-(2-chlorophenyl)-2-((3,3-difluorocyclobutyl)amino)-2-oxoethyl)-2-(4-cyanopyridin-2-yl)-N-(3-fluorophenyl)-1,2,5-thiadiazolidine-3-carboxamide 1,1-dioxide] | < 0.02 µM |
| O=C(NC1CCCCC1)[C@@H](c1ccccc1Cl)N(C(=O)[C@@H]1CCS(=O)(=O)N1c1cc(F)ccn1)c1cccc(F)c1 [Example 17, (S)—N—((R)-1-(2-chlorophenyl)-2-(cyclohexylamino)-2-oxoethyl)-2-(4-fluoropyridin-2-yl)-N-(3-fluorophenyl)-isothiazolidine-3-carboxamide 1,1-dioxide] | < 10 µM |
| N#Cc1cc(F)cc(N(C(=O)[C@@H]2CCS(=O)(=O)N2c2cc(C#N)ccn2)[C@@H](C(=O)NC2CC(F)(F)C2)c2ccccc2Cl)c1 [Example 7, (S)—N—((R)-1-(2-chlorophenyl)-2-((3,3-difluorocyclobutyl)amino)-2-oxoethyl)-2-(4-cyanopyridin-2-yl)-N-(3-cyano-5-fluorophenyl)-isothiazolidine-3-carboxamide 1,1-dioxide] | < 0.5 µM |
| O=C(NC1CCCCC1)[C@H](c1ccccc1Cl)N(C(=O)[C@@H]1CCS(=O)(=O)N1c1ncccn1)c1cccc(F)c1 [Example 14, (S)—N—((S)-1-(2-chlorophenyl)-2-(cyclohexylamino)-2-oxoethyl)-2-(pyrimidin-2-yl)-N-(3-fluorophenyl)-isothiazolidine-3-carboxamide 1,1-dioxide] | < 0.02 µM |
| N#Cc1ccnc(N2[C@H](C(=O)N(c3cccc(F)c3)[C@H](C(=O)NC3CCC(F)(F)CC3)c3ccccc3Cl)CCS2(=O)=O)c1 [Example 23, (S)—N—((S)-1-(2-chlorophenyl)-2-((4,4-difluorocyclohexyl)amino)-2-oxoethyl)-2-(4-cyanopyridin-2-yl)-N-(3-fluorophenyl)-isothiazolidine-3-carboxamide 1,1-dioxide] | < 0.02 µM |
| N#Cc1ccnc(N2[C@H](C(=O)N(c3cccc(F)c3)[C@@H](C(=O)NC3CC(F)(F)C3)c3ccccc3Cl)CCS2(=O)=O)c1 [Example 11, (S)—N—((R)-1-(2-chlorophenyl)-2-((3,3-difluorocyclobutyl)amino)-2-oxoethyl)-2-(4-cyanopyridin-2-yl)-N-(3-fluorophenyl)-isothiazolidine-3-carboxamide 1,1-dioxide] | < 0.5 µM |
| N#Cc1ccnc(N2[C@H](C(=O)N(c3cccc(C(F)(F)F)c3)[C@@H](C(=O)NC3CC(F)(F)C3)c3ccccc3Cl)CCS2(=O)=O)c1 [Example 5, (S)—N—((R)-1-(2-chlorophenyl)-2-((3,3-difluorocyclobutyl)amino)-2-oxoethyl)-2-(4-cyanopyridin-2-yl)-N-(3-trifluoromethylphenyl)-isothiazolidine-3-carboxamide 1,1-dioxide] | < 1 µM |
| N#Cc1ccnc(N2[C@H](C(=O)N(c3cc(F)cc(F)c3)[C@@H](C(=O)NC3CC(F)(F)C3)c3ccccc3Cl)CCS2(=O)=O)c1 [Example 3, (S)—N—((R)-1-(2-chlorophenyl)-2-((3,3-difluorocyclobutyl)amino)-2-oxoethyl)-2-(4-cyanopyridin-2-yl)-N-(3,5-difluorophenyl)-isothiazolidine-3-carboxamide 1,1-dioxide] | < 0.5 µM |
| N#Cc1ccnc(N2[C@H](C(=O)N(c3cc(F)c[n+]([O-])c3)[C@H](C(=O)NC3CC(F)(F)C3)c3ccccc3Cl)CCS2(=O)=O)c1 [Example 27, 3-((S)—N—((S)-1-(2-chlorophenyl)-2-((3,3-difluorocyclobutyl)amino)-2-oxoethyl)-2-(4-cyanopyridin-2-yl)-1,1-dioxoisothiazolidine-3-carboxamido)-5-fluoropyridine-1-oxide] | 0.02 µM |
| N#Cc1ccnc(N2[C@H](C(=O)N(c3ccc(F)c(F)c3)[C@H](C(=O)NC3CC(F)(F)C3)c3ccccc3Cl)CCS2(=O)=O)c1 [Example 10, (S)—N—((S)-1-(2-chlorophenyl)-2-((3,3-difluorocyclobutyl)amino)-2-oxoethyl)-2-(4-cyanopyridin-2-yl)-N-(3,4-difluorophenyl)-isothiazolidine-3-carboxamide 1,1-dioxide] | < 0.02 µM |
| O=C(NC1CCCCC1)[C@@H](c1ccccc1Cl)N(C(=O)[C@@H]1CCS(=O)(=O)N1c1ncccn1)c1cccc(F)c1 [Example 13, (S)—N—((R)-1-(2-chlorophenyl)-2-(cyclohexylamino)-2-oxoethyl)-2-(pyrimidin-2-yl)-N-(3-fluorophenyl)-isothiazolidine-3-carboxamide 1,1-dioxide] | < 1 µM |
| N#Cc1ccnc(N2[C@H](C(=O)N(c3cccc(F)c3)[C@@H](C(=O)NC3CCC(F)(F)CC3)c3ccccc3Cl)CCS2(=O)=O)c1 [Example 22] | < 1 µM |

Continued, values first:

| IC50 | Compound |
| --- | --- |
| < 0.02 µM | N#Cc1ccnc(N2[C@H](C(=O)N(c3cccc(C(F)(F)F)c3)[C@H](C(=O)NC3CC(F)(F)C3)c3ccccc3Cl)CCS2(=O)=O)c1 [Example 6, (S)—N—((S)-1-(2-chlorophenyl)-2-((3,3-difluorocyclobutyl)amino)-2-oxoethyl)-2-(4-cyanopyridin-2-yl)-N-(3-trifluoromethylphenyl)-isothiazolidine-3-carboxamide 1,1-dioxide] |
| < 0.5 µM | N#Cc1ccnc(N2[C@H](C(=O)N(c3cccc(F)c3)[C@@H](C(=O)NC3CCCCC3)c3ccccc3Cl)CCS2(=O)=O)c1 [Example 15, (S)—N—((R)-1-(2-chlorophenyl)-2-(cyclohexylamino)-2-oxoethyl)-2-(4-cyanopyridin-2-yl)-N-(3-fluorophenyl)-isothiazolidine-3-carboxamide 1,1-dioxide] |
| < 1 µM | N#Cc1ccnc(N2[C@H](C(=O)N(c3ccc(F)c(F)c3)[C@@H](C(=O)NC3CC(F)(F)C3)c3ccccc3Cl)CCS2(=O)=O)c1 [Example 9, (S)—N—((R)-1-(2-chlorophenyl)-2-((3,3-difluorocyclobutyl)amino)-2-oxoethyl)-2-(4-cyanopyridin-2-yl)-N-(3,4-difluorophenyl)-isothiazolidine-3-carboxamide 1,1-dioxide] |
| < 1 µM | C#Cc1ccnc(N2[C@H](C(=O)N(c3cccc(F)c3)C(C(=O)NC3CCCCC3)c3ccccc3Cl)CCS2(=O)=O)c1 (stereo partly drawn) [Example 19, (3S)—N-(1-(2-chlorophenyl)-2-(cyclohexylamino)-2-oxoethyl)-N-(3-fluorophenyl)-2-(4-ethynylpyridin-2-yl)isothiazolidine-3-carboxamide 1,1-dioxide] |
| < 0.02 µM | N#Cc1cc(F)cc(N(C(=O)[C@@H]2CCS(=O)(=O)N2c2cc(C#N)ccn2)[C@H](C(=O)NC2CC(F)(F)C2)c2ccccc2Cl)c1 [Example 8, (S)—N—((S)-1-(2-chlorophenyl)-2-((3,3-difluorocyclobutyl)amino)-2-oxoethyl)-2-(4-cyanopyridin-2-yl)-N-(3-cyano-5-fluorophenyl)-isothiazolidine-3-carboxamide 1,1-dioxide] |
| < 0.1 µM | O=C(NC1CCCCC1)[C@H](c1ccccc1Cl)N(C(=O)[C@@H]1CCS(=O)(=O)N1c1cc(F)ccn1)c1cccc(F)c1 [Example 18, (S)—N—((S)-1-(2-chlorophenyl)-2-(cyclohexylamino)-2-oxoethyl)-2-(4-fluoropyridin-2-yl)-N-(3-fluorophenyl)-isothiazolidine-3-carboxamide 1,1-dioxide] |
| < 0.02 µM | N#Cc1ccnc(N2[C@H](C(=O)N(c3cc(F)cc(F)c3)[C@H](C(=O)NC3CC(F)(F)C3)c3ccccc3Cl)CCS2(=O)=O)c1 [Example 4, (S)—N—((S)-1-(2-chlorophenyl)-2-((3,3-difluorocyclobutyl)amino)-2-oxoethyl)-2-(4-cyanopyridin-2-yl)-N-(3,5-difluorophenyl)-isothiazolidine-3-carboxamide 1,1-dioxide] |
| < 0.02 µM | N#Cc1ccnc(N2[C@H](C(=O)N(c3cccc(S(N)(=O)=O)c3)C(C(=O)NC3CCCCC3)c3ccccc3Cl)CCS2(=O)=O)c1 (stereo partly drawn) [Example 26, (3S)—N-(1-(2-chlorophenyl)-2-(cyclohexylamino)-2-oxoethyl)-2-(4-cyanopyridin-2-yl)-N-(3-aminosulfonylphenyl)-isothiazolidine-3-carboxamide 1,1-dioxide] |
